Like-named read-outs stand apart in the source and are kept apart here.
Tests used:
PSMA [1] = biological target: T1, PSMA (Homo sapiens, UniProt Q04609); assay: PSMA-PET imaging of patients with biochemical recurrence of prostate cancer; format: in vivo; conditions: 124 patients with biochemical recurrence (BCR) of PCa
T1 construct: from tissue; host or cells: patients with prostate cancer or biochemical recurrence, in vivo PET/CT
Description: In the subsequent larger study, 124 patients with biochemical recurrence (BCR) of PCa were examined.
(§1) The study was conducted in accordance with the Institutional Review Board. All patients gave written informed consent to PET imaging and inclusion of their data in a retrospective analysis. All procedures were performed in compliance with the regulations of the responsible local authorities (District Administration of Cologne, Germany).
(§2) All measurements with [^68Ga]Ga-PSMA-HBED-CC and [^18F]-2-MeO-PSMA were carried out as described in the literature.^[14a, 15]

PSMA^+ LNCaP C4-2 cells = assay: Cellular uptake in PSMA positive LNCaP C4-2 cells; format: cell-based; conditions: for cellular uptake under inhibition with 2-PMPA: in the presence of 2-PMPA (100 μM/well)
Description: (§3) The PSMA specificity of the tracer uptake in LNCaP C4-2 was confirmed by complete inhibition with 2-PMPA (≤0.1% ID/10^5 cells). The enrichment of both tracers in PSMA^− PC3 cells was negligible (≤0.1% ID/10^5 cells).
(§4) PSMA^− PC-3 cells were cultured in RPMI-1640 medium supplemented with FBS (10%) and penicillin/streptomycin (1%). PSMA* LNCaP C4-2 cells were cultured in a mixture of DMEM: Ham's F-12K (Kaighn's) mediums (4:1) supplemented with FBS (5%), NaHCO3(3 g/L), insulin (5 μg/mL), triiodothyronine ([…]), transferrin (5 μg/mL), biotin (0.25 μg/ml) and adenine (25 μg/mL). Both cell lines were grown in 75 mL flasks containing 10 mL of the culture medium in a humidified atmosphere of 5% CO2/95% air at 37° C. for 4-5 days until they reached 80-90% confluency. Cells were seeded into 12-well plates (1×10^5 cells/well containing 1 mL medium) 24 h before the beginning of the cellular uptake experiments.
2-(Phosphonomethyl)pentanedioic acid (2-PMPA; 100 μM/well) was used for blocking studies. Thereafter, the cells were washed two times with medium (1 mL), trypsinized, harvested and the accumulated radioactivity was measured in a gamma counter (Wizard 1470, PerkinElmer, Massachusetts, USA). The cellular uptake of the novel PSMA-selective candidates and [^18F]DCFPyL obtained in experiments performed in parallel were compared. Each cellular uptake experiment was carried out in triplicate.

PSMA [2] = biological target: T1, PSMA; assay: Pilot PET/CT study in 10 patients, comparison with [68Ga]Ga-PSMA-HBED-CC; format: in vivo
Description: Owing to the favorable imaging properties of 2-MeO-[^18F]PSMA in rats a small pilot study with this tracer in 10 patients was conducted. All patients were examined with both [^68Ga]Ga-PSMA-HBED-CC and 2-MeO-[^18F]PSMA PET CT. In each case, both PET/CT scans were carried out within three weeks. […] In four patients, at least one additional PSMA-positive lesion using 2-MeO-[^18F]PSMA compared to the corresponding [^68Ga]Ga-PSMA-HBED-CC image was identified (FIG. 6B). In one patient inconspicuous in the [^68Ga]Ga-PSMA-HBED-CC scan, a PSMA-positive lesion was discovered by 2-MeO-[^18F]PSMA PET/CT (FIG. 6C).
as §1, §2

PSMA [3] = biological target: T2, PSMA (Rattus norvegicus, UniProt P70627); assay: PET study of PSMA-specific tracers in healthy rats; format: in vivo; conditions: for signal-to-noise ratio (SCG), printed in text with / SCG signal-to-noise ratio / SCG % ID / Bone % ID / Liver % ID: PET 60-120 min after injection; for SCG signal-to-noise ratio: background dorsal from cervical vertebral column
T2 construct: ganglia as natural PSMA-expressing tissues remain constant over a long time; from tissue; host or cells: healthy Long Evans rats in vivo
T2 sequence (P70627 whole entry): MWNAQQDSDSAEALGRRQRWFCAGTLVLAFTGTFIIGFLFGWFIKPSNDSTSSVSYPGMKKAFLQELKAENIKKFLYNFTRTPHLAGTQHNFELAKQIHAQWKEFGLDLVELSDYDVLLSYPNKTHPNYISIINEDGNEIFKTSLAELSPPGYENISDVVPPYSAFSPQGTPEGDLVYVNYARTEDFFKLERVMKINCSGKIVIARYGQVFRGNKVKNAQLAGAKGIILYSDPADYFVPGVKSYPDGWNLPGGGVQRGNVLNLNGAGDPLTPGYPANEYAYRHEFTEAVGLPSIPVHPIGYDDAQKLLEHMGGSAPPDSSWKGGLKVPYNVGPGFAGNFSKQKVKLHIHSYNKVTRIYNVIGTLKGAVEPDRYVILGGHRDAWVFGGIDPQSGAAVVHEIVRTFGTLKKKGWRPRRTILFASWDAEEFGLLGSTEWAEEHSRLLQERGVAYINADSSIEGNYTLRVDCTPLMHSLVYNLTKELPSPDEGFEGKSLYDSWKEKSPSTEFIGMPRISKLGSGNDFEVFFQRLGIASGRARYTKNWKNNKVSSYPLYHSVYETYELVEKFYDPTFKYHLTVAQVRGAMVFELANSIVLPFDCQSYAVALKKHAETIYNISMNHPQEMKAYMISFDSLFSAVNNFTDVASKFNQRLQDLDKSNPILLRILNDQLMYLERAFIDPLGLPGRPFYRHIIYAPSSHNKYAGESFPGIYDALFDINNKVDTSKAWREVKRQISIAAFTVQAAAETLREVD
From the text: Ganglia represent an ideal tissue for the evaluation of PSMA binding imaging probes. Having a size of 1-2 mm these structures are sufficiently small to imitate metastases in a very early stage. Ganglionic PSMA is expressed by satellite glial cells, which envelop the neuronal cell bodies of the trigeminal ganglion,^[25] spinal dorsal root ganglia and ganglia of the autonomic nervous system.^[26] […] Rat PSMA comprises 752 amino acids (vs. 750 in humans), and has about 91% homology to the human PSMA. Importantly, all amino acid residues of the active site are essentially the same as those in the human homologue with the only exception of Gly^548 in the human and Ser^548 in the rat protein, respectively^[28]
Conditions: Uptake of different PSMA-specific tracers in healthy rats measured by PET. Conditions: PET scanner (Focus 220, Siemens); 57-71 MBq tracer was injected. PET scans started 60 min after injection and continued for 60 min. % ID was determined by dividing each image by the injected dose and multiplying it by body weight. […] Background activity for calculation of signal-to-noise ratio was measured dorsal from the cervical vertebral column with a 390 mm^3 VOI.
Animals: Experiments were carried out in accordance with the EU directive 2010/63/EU for animal experiments and the German Animal Welfare Act (TierSchG, 2006), and were approved by regional authorities (LANUV NRW). Long Evans rats (250-590 g body weight) were used for this study. Rats were housed in pairs in individually ventilated cages (NexGen EcoFlo, cages RAT1800 with 1805 cm^2 floor space and 41 cm height; Allentown Inc., Allentown, N.J., USA) under controlled ambient conditions (22±1° C. and 55±5% relative humidity) on an inversed 12 hour light/dark schedule (lights on 9:00 p.m.-9:00 a.m.). Food and water were available at all times. Three rats received two, and one rat received three different tracers. The other seven rats were measured with one tracer only. Each tracer was measured in three animals.
PET-imaging: Prior to PET measurements with PET probes, animals were anesthetized (initial dosage: 5% isoflurane in 02/air (3:7), then reduction to 2%), and a catheter for tracer injection was inserted into the lateral tail vein. Rats were placed on an animal holder (Medres, Cologne, Germany), and fixed with a tooth bar in a respiratory mask. Dynamic PET scans in a list mode were performed using a Focus 220 micro PET scanner (CTI-Siemens, Germany) with a resolution at a center of field of view of 1.4 mm. Data acquisition started with tracer injection (66±14 MBq in 0.5 mL i.v.), continued for 120 min and was followed by a 10 min transmission scan using a ^57Co point source. For blocking studies 2-(phosphonomethyl)pentanedioic acid (2-PMPA; 23 mg/kg) was added directly to a radiotracer solution. Breathing rate was monitored and kept around 60/min by adjusting isoflurane concentration (1.5-2.5%). Body temperature was maintained at 37° C. by a feedback-controlled system. Following Fourier rebinning, data were reconstructed using an iterative OSEM3D/MAP procedure78 including attenuation and decay correction in two different ways: 1) 28 frames (2×1 min; 2×2 min, 6×4 min, 18×5 min) for compilation of regional time activity curves; 2) 4 frames (4×30 min) for visual display. Resulting voxel sizes were always 0.38×0.38×0.79 mm.
Data analysis was performed using the software VINCI.79 Images were Gauss filtered (1 mm FWHM), and % ID was determined by dividing each image by the injected dose and multiplying the result by body weight times 100. Mean % ID values were extracted from each of the 28 frames and plotted over time.

PSMA^− PC-3 cells = assay: Cellular uptake in PSMA negative PC3 cells; format: cell-based
Description: as §3, §4
The corresponding PSMA specific PET probe was added to the cells (100-150 kBq/well) and the cells were incubated at 37° C. for 1 and 2 h. 2-(Phosphonomethyl)pentanedioic acid (2-PMPA; 100 μM/well) was used for blocking studies. Thereafter, the cells were washed two times with medium (1 mL), trypsinized, harvested and the accumulated radioactivity was measured in a gamma counter (Wizard 1470, PerkinElmer, Massachusetts, USA). […]

[4] = meta-analysis of data of 251 patients, detecting recurrent PCa; cited from earlier work
PSMA [5] = biological target: T1, PSMA; conditions: determined earlier, for comparison; cited from earlier work
[6] = 2 h incubation, 2-MeO-[18F]PSMA and [18F]DCFPyL in parallel (FIG. 4A)
[7] = 4 h incubation, 2-MeO-[18F]PSMA and [18F]DCFPyL in parallel (FIG. 4A)
[8] = 2 h incubation, 4-MeO-[18F]PSMA and [18F]DCFPyL in parallel (FIG. 4B)
[9] = 4 h incubation, 4-MeO-[18F]PSMA and [18F]DCFPyL in parallel (FIG. 4B)
[10] = co-application of 2-PMPA (23 mg/kg)

T1 sequence (Q04609 whole entry): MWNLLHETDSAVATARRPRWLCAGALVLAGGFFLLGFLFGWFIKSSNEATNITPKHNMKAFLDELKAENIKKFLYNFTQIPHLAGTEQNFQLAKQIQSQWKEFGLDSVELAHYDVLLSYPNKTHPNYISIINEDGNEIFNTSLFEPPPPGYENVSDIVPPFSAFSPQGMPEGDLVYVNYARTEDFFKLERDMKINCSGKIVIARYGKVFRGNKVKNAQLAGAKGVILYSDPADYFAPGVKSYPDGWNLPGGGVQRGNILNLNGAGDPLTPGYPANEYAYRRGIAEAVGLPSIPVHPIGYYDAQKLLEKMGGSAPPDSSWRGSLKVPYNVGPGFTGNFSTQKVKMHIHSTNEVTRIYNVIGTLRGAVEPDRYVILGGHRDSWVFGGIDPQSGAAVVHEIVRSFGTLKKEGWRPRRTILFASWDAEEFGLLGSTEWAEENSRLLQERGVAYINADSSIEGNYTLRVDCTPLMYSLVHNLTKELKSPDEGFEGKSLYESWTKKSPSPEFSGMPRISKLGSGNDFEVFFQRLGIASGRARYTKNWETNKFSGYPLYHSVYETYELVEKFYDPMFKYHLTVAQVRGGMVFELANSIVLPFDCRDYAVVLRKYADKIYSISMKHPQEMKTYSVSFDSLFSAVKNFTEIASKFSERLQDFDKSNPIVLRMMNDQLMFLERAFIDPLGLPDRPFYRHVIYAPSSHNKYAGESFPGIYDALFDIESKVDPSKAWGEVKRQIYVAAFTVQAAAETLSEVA

Compound | cellular uptake (PSMA^+ LNCaP C4-2 cells; [6]) | cellular uptake (PSMA^+ LNCaP C4-2 cells; [7]) | cellular uptake under inhibition with 2-PMPA (PSMA^+ LNCaP C4-2 cells) | signal-to-noise ratio (SCG), printed in text with (PSMA [3]) | SCG signal-to-noise ratio (PSMA [3]) | SCG % ID (PSMA [3]; superior cervical ganglion) | cellular uptake (PSMA^+ LNCaP C4-2 cells; [8]) | cellular uptake (PSMA^+ LNCaP C4-2 cells; [9]) | Bone % ID (PSMA [3]) | Liver % ID (PSMA [3]) | further results
COc1nc([18F])ccc1C(=O)NCCCC[C@H](NC(=O)N[C@@H](CCC(=O)O)C(=O)O)C(=O)O [2-MeO-[^18F]PSMA] | 2.03±0.03 % ID/10^5 cells | 3.31±0.01 % ID/10^5 cells | ≤ 0.1 % ID/10^5 cells | 8.2 ± 1.7 | 8.2 ± 1.7 | 31.3±10.5 % ID | – | – | – | – | sensitivity (PSMA [1]): 83.0%; patients inconspicuous in the [68Ga]Ga-PSMA-HBED-CC scan in whom a PSMA-positive lesion was discovered (PSMA [2]): one; patients with at least one additional PSMA-positive lesion compared to the corresponding [68Ga]Ga-PSMA-HBED-CC image (PSMA [2]; both PET/CT scans within three weeks): four
COc1cc([18F])ncc1C(=O)NCCCC[C@H](NC(=O)N[C@@H](CCC(=O)O)C(=O)O)C(=O)O [4-MeO-[^18F]PSMA] | – | – | completely blocked | – | 4.6±1.3 | 14.4±2.6 % ID | 0.79±0.04 % ID/10^5 cells | 0.90±0.04 % ID/10^5 cells | 19.2±2.1 % ID | 29.0±7.2 % ID | enrichment in PSMA^− PC3 cells (PSMA^− PC-3 cells): very low
O=C(O)CC[C@H](NC(=O)N[C@@H](CCCCNC(=O)c1ccc([18F])nc1)C(=O)O)C(=O)O [[^18F]DCFPyL] | 1.55±0.05 % ID/10^5 cells | 3.1±0.03 % ID/10^5 cells | – | – | – | 20.2 ± 5.8 % ID | 1.53±0.03 % ID/10^5 cells | 3.16±0.01 % ID/10^5 cells | 12.4 ± 4.3 % ID | 65.3 ± 21.7 % ID | uptake in the ganglion of the trigeminal nerve (PSMA [3]; 60-120 min after injection): 37.9±9.9 % ID; Liver % ID (PSMA [3]; [10]): remained at the same level; SCG % ID (PSMA [3]; [10]): 4.6±1.8 % ID
N[C@]1(C(=O)O)C[C@@H]([18F])C1 [[^18F]FACBC, anti-1-amino-3-[^18F]fluorocyclobutane-1-carboxylic acid] | – | – | – | – | – | – | – | – | – | – | sensitivity [4]: 87%; specificity [4]: 66%
O=C(O)CC[C@H](NC(=O)N[C@@H](CCCCNC(=O)[C@H](Cc1ccc2ccccc2c1)NC(=O)c1ccc(CNC(=O)[C@H](CCC(=O)O)NC(=O)[C@H](CCC(=O)O)NC(=O)c2ccc([18F])nc2)cc1)C(=O)O)C(=O)O [[^18F]PSMA-1007] | – | – | – | 6.2 ± 1.9 | 6.2 ± 1.9 | – | – | – | 33.2±9.5 % ID | 50.7 ± 4.3 % ID | –
O=C([O-])CN(CCN(CC(=O)[O-])Cc1cc(CCC(=O)NCCCCCC(=O)NCCCC[C@H](NC(=O)N[C@@H](CCC(=O)O)C(=O)O)C(=O)O)ccc1[O-])Cc1cc(CCC(=O)O)ccc1[O-].[68Ga+3].[OH3+] [[^68Ga]Ga-PSMA-HBED-CC] | – | – | – | – | 4.5±0.1 | 41.0±3.4 % ID | – | – | 18.5 ± 0.6 % ID | 47.0 ± 10.3 % ID | SCG signal-to-noise ratio (PSMA [3]; listed as [^68Ga]PSMA-HBED-CC): 4.5 ± 0.1; SCG % ID (PSMA [3]; superior cervical ganglion, listed as [^68Ga]PSMA-HBED-CC): 41.0 ± 3.4 % ID; sensitivity (PSMA [5]): 74.2%
